Target: cAMP-specific 3',5'-cyclic phosphodiesterase 4D (Homo sapiens, UniProt Q08499)
Assay: Inhibitory Activity Assay
Procedure: Necessary amounts of test compounds were weighed, and 100% dimethylsulfoxide (DMSO) was added thereto to adjust the concentration to 10 mM. The solutions were stored in a freezer as stock solutions of each test compound. After being thawed when required, the solutions were diluted 20-fold with 100% DMSO to give a 500 μM concentration. Further, 10-fold serial dilutions were made with 100% DMSO to prepare test compounds of different concentrations. 2 μl of solutions containing one of each of the test compound were separately added into 1.2 ml tubes in which 23 μl of 20 mM Tris-HCl (pH 7.4) had been placed beforehand. 25 μl of a PDE4D enzyme solution diluted at an optimal ratio determined in (3) above were added on ice to each of the tubes, and 50 μl of a substrate solution containing 2 μM[3H] cAMP prepared by dilution with a 20 mM Tris-HCl (pH 7.4) containing 10 mM MgCl2 was added thereto. The final DMSO concentration in the reaction liquid was 2%. After mixing, the mixture was incubated for 10 minutes at 30° C. At the completion of the incubation, the tubes were placed in a bath containing boiling water for 3 minutes, and the reaction was stopped. After cooling the tubes in ice, 25 μl solution of 0.2 mg/ml snake venom was added thereto, and after mixing the mixture was incubated for 10 minutes at 30° C. […] 3H radioactivity (cpm) was measured using a TopCount.

Chain of cAMP-specific 3',5'-cyclic phosphodiesterase 4D (Q08499 whole entry): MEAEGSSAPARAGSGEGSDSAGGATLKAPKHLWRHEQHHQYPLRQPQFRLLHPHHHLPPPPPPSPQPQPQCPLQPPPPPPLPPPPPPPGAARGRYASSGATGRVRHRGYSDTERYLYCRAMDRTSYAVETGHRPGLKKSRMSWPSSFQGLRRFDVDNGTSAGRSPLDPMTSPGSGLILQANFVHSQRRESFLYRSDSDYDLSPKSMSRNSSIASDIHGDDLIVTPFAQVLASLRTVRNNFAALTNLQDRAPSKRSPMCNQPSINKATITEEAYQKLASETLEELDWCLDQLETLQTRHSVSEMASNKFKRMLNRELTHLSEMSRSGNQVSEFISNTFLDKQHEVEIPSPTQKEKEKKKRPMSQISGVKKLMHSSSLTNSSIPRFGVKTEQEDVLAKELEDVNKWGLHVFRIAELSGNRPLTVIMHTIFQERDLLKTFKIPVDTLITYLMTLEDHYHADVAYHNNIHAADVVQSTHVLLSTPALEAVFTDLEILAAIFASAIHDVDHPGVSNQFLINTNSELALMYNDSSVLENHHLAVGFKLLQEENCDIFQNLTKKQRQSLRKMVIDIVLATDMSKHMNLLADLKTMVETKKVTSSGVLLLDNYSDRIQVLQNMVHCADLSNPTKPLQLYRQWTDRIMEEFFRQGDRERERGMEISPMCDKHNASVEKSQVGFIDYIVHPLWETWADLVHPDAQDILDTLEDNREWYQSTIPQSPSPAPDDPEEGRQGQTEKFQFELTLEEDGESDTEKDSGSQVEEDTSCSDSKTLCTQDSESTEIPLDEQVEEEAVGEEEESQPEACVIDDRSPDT

## COc1ccc(-c2nc(CCC(=O)c3ncccc3OC)co2)cc1OCC1CC1 [USRE46792, 126]
  IC50: < 50 nM
